“Also recorded” adds a separate entry of the source. Like-named read-outs stand apart in the source and are kept apart here.
Tests used:
MCF-7 cells = test: MTS/PMS cell viability assay, MCF-7; type: cell-based; conditions: Homo sapiens, MCF7
Protocol: (§1) a) MTS/PMS Cell Viability Assay (SKBr3 and MCF-7 Cells)
(§2) Cells were maintained in a 1:1 mixture of Advanced DMEM/F12 (Gibco) supplemented with non-essential amino acids, L-glutamine (2 mM), streptomycin (500 μg/mL), penicillin (100 units/mL), and 10% FBS. Cells were grown to confluence in a humidified atmosphere (37° C., 5% CO2), seeded (2000/well, 100 μL) in 96-well plates, and allowed to attach overnight. Compound at varying concentrations in DMSO (1% DMSO final concentration) was added, and cells were returned to the incubator for 72 hr. At 72 hr, the number of viable cells was determined using an MTS/PMS cell proliferation kit (Promega) per the manufacturer's instructions. Cells incubated in 1% DMSO were used at 100% proliferation, and values were adjusted accordingly. IC50 values were calculated from separate experiments performed in triplicate using GraphPad Prism.

JMAR cell line = test: Promega CellTiter-Glo (CTG) luminescent assay, JMAR; type: cell-based; conditions: 72 hr, mean ± standard deviation
Protocol: (§3) b) Promega CellTiter-Glo (CTG) Luminescent Assay
(§4) Antiproliferative activities against MDA-MB-468LN, MDA1986 and JMAR cell lines were performed with 384-well white plates with the Promega CellTiter-Glo (CTG) luminescent assay with 72 hr compound treatment. Data analysis was performed using GraphPad Prism. Selected data were further checked with MTS/PMS cell viability assay with 96-well plates, which correlated well with Promega CellTiter-Glo luminescent assay.

MDA-MB-468LN cell line = test: Promega CellTiter-Glo (CTG) luminescent assay, MDA-MB-468LN; type: cell-based; conditions: Homo sapiens, 72 hr, mean ± standard deviation
Protocol: as §3, §4

[1] = system: Hsp90 client proteins Her2, Akt, Raf-1 and CDK6; test: Western blot analyses of Hsp90 client protein degradation in MCF-7 cell lysates; type: cell-based, human; conditions: 24 h; for Hsp90 client proteins Her2, Akt and Raf-1 (Western blot): MCF-7 lysates, L = 1/2 and H = 5 times the antiproliferative IC50
Protocol: MCF-7 cells were cultured as described above and treated with various concentrations of drug, Geldanamycin (GDA or G) in DMSO (1% DMSO final concentration), or vehicle (DMSO) for 24 hr. Cells were harvested in cold PBS and lysed in RIPA lysis buffer containing 1 mM PMSF, 2 mM sodium orthovanadate, and protease inhibitors on ice for 1 hr. Lysates were clarified at 14000 g for 10 min at 4° C. Protein concentrations were determined using the Pierce BCA protein assay kit per the manufacturer's instructions. Equal amounts of protein (15 μg) were electrophoresed under reducing conditions, transferred to a PVDF membrane, and immunoblotted with the corresponding specific antibodies. Membranes were incubated with an appropriate horseradish peroxidase-labeled secondary antibody, developed with a chemiluminescent substrate, and visualized.

MDA1986 cell line = test: Promega CellTiter-Glo (CTG) luminescent assay, MDA1986; type: cell-based; conditions: 72 hr, mean ± standard deviation, read-out: IC50 MDA1986
Protocol: as §3, §4

SKBr3 cells = test: MTS/PMS cell viability assay, SKBr3; type: cell-based; conditions: Homo sapiens, SK-BR-3
Protocol: as §1, §2

PC3-MM2 cells = test: Sulforhodamine B assay, PC3-MM2; type: cell-based; conditions: Homo sapiens, PC3MM2, mean ± standard deviation
Protocol: (§5) c) Sulforhodamine B Assay
(§6) The sulforhodamine B assay is used to measure drug-induced cytotoxicity and cell proliferation for large-scale drug-screening applications. Its principle is based on the ability of the protein dye sulforhodamine B to bind electrostatically on pH dependent protein basic amino acid residues of trichloroacetic acid-fixed cells. The aim is to evaluate samples showing selective growth inhibition or cell killing of particular tumor cell lines.
(§7) The SRB assay is performed by treating cells using a 10 point dose-response curve. The cells are fixed with trichloroacetic acid solution and stained with sulforhodamine B dye. The stained cells are then solubilized with 10 mM Tris buffer and read for absorbance at 565 nm.
(§8) Percentage growth is calculated at each of the drug concentration levels using the absorbance raw data.
(§9) Percentage growth inhibition is calculated as: [(Ti−Tz)/(C−Tz)]×100 for concentrations for which Ti≥Tz. [(Ti−Tz)/(Tz)]×100 for concentrations for which Ti<Tz.
(§10) Ti=Absorbance of wells at a given drug concentration level.
(§11) Tz=Absorbance time zero wells
(§12) C=Absorbance of untreated wells (media and cells only)
(§13) After growth inhibition values have been calculated, the data is plotted on Graphpad Prism software. Data is entered and plotted on a sigmoidal dose-response curve using non-linear regression.

LNCaP cells = test: Sulforhodamine B assay, LNCaP; type: cell-based; conditions: Homo sapiens, mean ± standard deviation
Protocol: as §5, §6, §7, §8, §9, §10, §11, §12, §13

[2] = system: SKBr3, MDA-MB-468LN, MCF-7, MDA1986, JMAR, PC3-MM2 and LNCaP cell lines; test: Antiproliferative activity against the panel of cancer cell lines; type: cell-based; conditions: for activity against all cell lines tested: panel of seven cancer cell lines
Protocol: as §1
as §2, with “Prism. […]” for “Prism.”
as §3
Antiproliferative activities against MDA-MB-468LN, MDA1986 and JMAR cell lines were performed with 384-well white plates with the Promega CellTiter-Glo (CTG) luminescent assay with 72 hr compound treatment. Data analysis was performed using GraphPad Prism. Selected data were further checked with MTS/PMS cell viability assay with 96-well plates, which correlated well with Promega CellTiter-Glo luminescent assay. […]
as §5, §6, §7

Hsp90 C-terminus = test: Proteolytic fingerprinting assay of Hsp90 from rabbit reticulocyte lysate; type: binding; conditions: 5 mM compound; band not detected for vehicle control
Protocol: e) Proteolytic Fingerprinting Assay
Rabbit reticulocyte (Green Hectares) incubated under conditions of protein synthesis at 30° C. in the presence of compound or vehicle (1% DMSO) for 10 minutes. Each reaction mixture contained 66.6% rabbit reticulocyte and 33.3% ATP regenerating system (10 mM creatine phosphate and 20 μg mL^−1 creatine phosphokinase) and a final concentration of 75 mM KCl. Each reaction mixture contained the indicated amount of compound. After incubating, the samples were immediately placed on ice and the indicated amount of TPCK-treated trypsin (Worthington) was added to each sample. The samples digested on ice for an additional 6 minutes and the reactions were quenched by the addition of Laemmli sample buffer followed by immediate boiling. Equal amounts of each sample were electrophoresed under reducing conditions (12% acrylamide gels), transferred to PVDF, and immunoblotted with an antibody specific to the Hsp90 C-terminus. Membranes were incubated with an appropriate horseradish peroxidase-labeled secondary antibody, developed with a chemiluminescent substrate, and visualized.

[3] = Table 1 coumarin-based triazoles, 72 hr, mean ± standard deviation, read-out: IC50 MCF-7
[4] = Table 1 coumarin-based triazoles
[5] = Table 1 coumarin-based triazoles, 72 hr, mean ± standard deviation, at least two experiments in triplicate, read-out: IC50 SKBr3
[6] = Table 2 biphenyl triazole analogues, 72 hr, mean ± standard deviation, read-out: IC50 MCF-7
[7] = read-out: IC50 against MCF-7 cell line
[8] = Table 2 biphenyl triazole analogues
[9] = Table 2 biphenyl triazole analogues, 72 hr, mean ± standard deviation, read-out: IC50 SKBr3

Row | Structure (SMILES) | IC50 (MCF-7 cells; [3]) | IC50 (JMAR cell line; [4]) | IC50 (MDA-MB-468LN cell line; [4]) | Hsp90 client proteins Her2, Akt and Raf-1 (Western blot) [1] | IC50 (MDA1986 cell line; [4]) | IC50 (SKBr3 cells; [5]) | IC50 (PC3-MM2 cells; [4]) | IC50 (LNCaP cells; [4]) | also measured
1 | COc1cccc(Cn2cc(C(=O)Nc3cc4ccc(OC5CCN(C)CC5)c(C)c4oc3=O)nn2)c1 [4o, 1-(3-Methoxybenzyl)-N-(8-methyl-7-((1-methylpiperidin-4-yl)oxy)-2-oxo-2H-chromen-3-yl)-1H-1,2,3-triazole-4-carboxamide] | 1610 ± 60 nM | 1490 ± 310 nM | 2690 ± 1330 nM | degraded | 1340 ± 310 nM | 1150 ± 190 nM | 7200 ± 150 nM | 3490 ± 300 nM | 
2 | Cc1c(OC2CCN(C)CC2)ccc2cc(NC(=O)c3cn(-c4cccc(Cl)c4)nn3)c(=O)oc12 [4f, 1-(3-Chlorophenyl)-N-(8-methyl-7-((1-methylpiperidin-4-yl)oxy)-2-oxo-2H-chromen-3-yl)-1H-1,2,3-triazole-4-carboxamide] | 1140 ± 180 nM | 6400 nM | 4600 nM | degraded | 6400 nM | 710 ± 140 nM | 3900 ± 5110 nM | 13300 ± 11900 nM | 
3 | Cc1c(OC2CCN(C)CC2)ccc2cc(NC(=O)c3cn(Cc4ccccc4)nn3)c(=O)oc12 [4b, 1-Benzyl-N-(8-methyl-7-((1-methylpiperidin-4-yl)oxy)-2-oxo-2H-chromen-3-yl)-1H-1,2,3-triazole-4-carboxamide] | 1080 nM | 2100 ± 230 nM | 2400 nM |  | 1600 ± 210 nM | 990 ± 80 nM | 9800 ± 13500 nM | 15500 ± 8750 nM | activity against all cell lines tested [2]: low micromolar
4 | Cc1c(OC2CCN(C)CC2)ccc2cc(NC(=O)c3cn(CC4CCCCC4)nn3)c(=O)oc12 [4q, 1-(Cyclohexylmethyl)-N-(8-methyl-7-((1-methylpiperidin-4-yl)oxy)-2-oxo-2H-chromen-3-yl)-1H-1,2,3-triazole-4-carboxamide] | 1290 ± 160 nM | 300 ± 260 nM | 990 ± 240 nM | degraded | 240 ± 320 nM | 610 nM | 3130 ± 140 nM | 1200 ± 60 nM | 
5 | CN1CCC(Oc2ccc(-c3ccc(NC(=O)c4cn(Cc5ccccc5)nn4)cc3)cc2)CC1 [5b, 1-Benzyl-N-(4′-((1-methylpiperidin-4-yl)oxy)-[1,1′-biphenyl]-4-yl)-1H-1,2,3-triazole-4-carboxamide] |  |  |  | decreased; also recorded: Clear degradation |  |  |  |  | IC50 (MCF-7 cells; [6]): 500 ± 20 nM; IC50 (MCF-7 cells; [7]): 500 nM; IC50 (JMAR cell line; [8]): 500 ± 60 nM; times more potent than 5a against all the cell lines evaluated ([2]; 5b compared with 5a): 2.5-8 times; IC50 (MDA-MB-468LN cell line; [8]): 340 ± 70 nM; client proteins Her2, Akt, Raf-1 and CDK6 (Western blot, concentration series) ([1]; MCF-7 cells, increasing concentrations): degraded in a concentration-dependent manner; IC50 (MDA1986 cell line; [8]): 280 ± 100 nM; IC50 (SKBr3 cells; [9]): 170 ± 20 nM; IC50 (SKBr3 cells; read-out: IC50 against SKBr3 cell line): 170 nM; IC50 (PC3-MM2 cells; [8]): 550 ± 460 nM; IC50 (LNCaP cells; [8]): 650 ± 540 nM
6 | Cc1c(OC2CCN(C)CC2)ccc2cc(NC(=O)c3cn(-c4ccccc4)nn3)c(=O)oc12 [4a, N-(8-methyl-7-((1-methylpiperidin-4-yl)oxy)-2-oxo-2H-chromen-3-yl)-1-phenyl-1H-1,2,3-triazole-4-carboxamide] | 1330 ± 130 nM | 2300 ± 400 nM | 1100 ± 210 nM |  | 1500 ± 3400 nM | 940 ± 20 nM | 2690 nM | 4720 ± 710 nM | activity against all cell lines tested [2]: low micromolar
7 | CO[C@@H]1[C@@H](OC(N)=O)[C@@H](O)[C@H](Oc2ccc3c(O)c(NC(=O)c4ccc(O)c(CC=C(C)C)c4)c(=O)oc3c2C)OC1(C)C [novobiocin, reference compound] |  |  |  |  |  |  |  |  | 50 kDa Hsp90 fragment on trypsin proteolysis (C-terminal Hsp90 antibody) (Hsp90 C-terminus): 50 kDa band was detected
8 | COc1ccc(Cn2cc(C(=O)Nc3ccc(-c4ccc(OC5CCN(C)CC5)cc4)cc3)nn2)cc1 [5g, 1-(4-Methoxybenzyl)-N-(4′-((1-methylpiperidin-4-yl)oxy)-[1,1′-biphenyl]-4-yl)-1H-1,2,3-triazole-4-carboxamide] |  |  |  | decreased; also recorded: Clear degradation |  |  |  |  | IC50 (MCF-7 cells; [6]): 270 ± 60 nM; IC50 (MCF-7 cells; [7]): 270 nM; IC50 (JMAR cell line; [8]): 610 ± 90 nM; IC50 (MDA-MB-468LN cell line; [8]): 170 nM; IC50 (MDA1986 cell line; [8]): 480 ± 90 nM; IC50 (SKBr3 cells; [9]): 160 ± 20 nM; IC50 (PC3-MM2 cells; [8]): 440 ± 190 nM; IC50 (LNCaP cells; [8]): 240 ± 70 nM
